Measurements: patent US7132420B2, “Aspartic protease inhibitors” (The United States of America as represented by the …, priority 1999, dated 2006)
Like-named read-outs stand apart in the source and are kept apart here.

How the values were obtained:
[1] = biological target: 84V mutant HIV-1 protease (Human immunodeficiency virus type 1 group M subtype B, UniProt P04585, I572V); assay: HIV protease assay, 84V mutant (Ki); type: biochemical
Text: (§1) This example illustrates the HIV-1 protease inhibition activity (Ki), HIV-1 antiviral data (EC50), and the toxicity against normal cells (IC50), for particular compounds of formula (I). The HIV protease assay was done according to the protocol described in Kageyama et al, Antimicrob. Agents Chemother., 37, 272 (1993). The HIV antiviral assay was done according to the protocol described in Weislow et al., J. National Cancer Inst. 81, 577 (1989).

HIV-1 = assay: HIV antiviral assay (EC50); type: cell-based
Text: The HIV protease assay was done according to the protocol described in Kageyama et al, Antimicrob. Agents Chemother., 37, 272 (1993). The HIV antiviral assay was done according to the protocol described in Weislow et al., J. National Cancer Inst. 81, 577 (1989).

normal cells = assay: toxicity against normal cells (IC50); type: cell-based
Text: as §1

HIV-1 protease = HIV-1 protease (Human immunodeficiency virus type 1 group M subtype B, UniProt P04585); assay: HIV protease assay (Ki); type: biochemical
Text: as §1
(§2) The HIV protease assay was done according to the protocol described in Example 35. The plasmepsin II assay was done according to the protocol used in Silva et al., Proc. Nat. Acad. Sci. USA, 93, pp. 10034–10039, September 1996 (Biochemstry). The cathepsin D assay was done according to the protocol described in Gulnik et al., FEBS Letters, 413, 379–384 (1997). The compounds illustrated in Table 2 are of the general formula (II), as described in Example 35.

[2] = biological target: 82F/84V mutant HIV-1 protease (Human immunodeficiency virus type 1 group M subtype B, UniProt P04585, I572V/V570F); type: biochemical
Text: as §1

plasmepsin II = plasmepsin II (Plasmodium falciparum, UniProt P46925); assay: biochemical; type: biochemical; conditions: for Ki: Table 2, read-out: Pls II Ki
Text: as §2

cathepsin D = cathepsin D (Homo sapiens, UniProt P07339); assay: cathepsin D assay (Ki); type: biochemical; conditions: for Ki: Table 2, read-out: Cath D Ki
Text: as §2

[3] = Rat P.O. pharmacokinetics and oral bioavailability; type: in vivo, rats; conditions: for Cmax / Rat P.O. tmax: P.O. about 37 mg/kg, PEG 300 vehicle
Protocol: (§3) This example illustrates the oral bioavailability of various compounds of the present invention. […] Drug concentrations were measured by centrifuging plasma samples, extracting the supernatants with tert-butyl methyl ether, and analyzing the extracts by HPLC. Oral bioavailability (% F) was calculated on the basis of the ratio of the amount of drug absorbed systemically from oral administration (AUC p.o.) relative to the amount of systemic drug obtained from intravenous administration (AUC iv).

Rat IV pharmacokinetics = type: in vivo, rats; conditions: IV about 5 mg/kg
Protocol: as §3

[4] = Table 1, in nM, read-out: HIV-1 Ki

Chain of plasmepsin II (P46925 125-453): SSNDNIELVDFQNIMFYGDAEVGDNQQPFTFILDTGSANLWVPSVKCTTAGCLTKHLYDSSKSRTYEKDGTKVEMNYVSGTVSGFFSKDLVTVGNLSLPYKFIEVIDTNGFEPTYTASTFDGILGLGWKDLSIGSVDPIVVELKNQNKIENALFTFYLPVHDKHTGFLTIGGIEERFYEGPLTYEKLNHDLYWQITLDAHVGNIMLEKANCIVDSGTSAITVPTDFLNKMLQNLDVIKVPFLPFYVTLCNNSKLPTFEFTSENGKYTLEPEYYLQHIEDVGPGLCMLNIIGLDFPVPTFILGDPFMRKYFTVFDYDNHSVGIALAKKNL
Chain of cathepsin D (P07339 65-412): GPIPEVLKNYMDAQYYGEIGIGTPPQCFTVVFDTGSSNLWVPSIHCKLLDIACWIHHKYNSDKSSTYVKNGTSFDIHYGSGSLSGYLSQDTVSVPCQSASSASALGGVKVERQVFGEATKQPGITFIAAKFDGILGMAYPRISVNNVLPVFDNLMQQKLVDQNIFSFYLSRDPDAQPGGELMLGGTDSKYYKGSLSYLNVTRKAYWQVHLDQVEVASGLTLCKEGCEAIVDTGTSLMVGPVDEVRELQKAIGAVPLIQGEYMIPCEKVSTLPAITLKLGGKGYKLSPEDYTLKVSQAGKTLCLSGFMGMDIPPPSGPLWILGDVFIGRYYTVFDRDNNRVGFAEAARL

Row | SMILES | EC50 (HIV-1; Table 1) [nM] | IC50 (normal cells; Table 1) [nM] | Ki (HIV-1 protease; Table 1, read-out: HIV-1 Ki) [nM] | Ki (plasmepsin II) [nM] | EC50 (HIV-1; Table 2) [nM] | Ki (cathepsin D) [nM] | IC50 (normal cells; Table 2) [nM] | Ki (HIV-1 protease; Table 2, read-out: HIV-1 Ki) [nM] | also measured
1 | CC(C)C[C@@H](C[C@H](O)[C@H](Cc1ccccc1)NC(=O)c1ccccc1NC(=O)OCc1ccccn1)NC(=O)c1ccccc1NC(=O)OCc1ccccn1 [(21)] | 127 | > 20000 | 0.14 | – | – | – | – | – | Ki ([1]; Table 1, in nM): 2.7 nM
2 | CC(C)[C@H](NC(=O)OCc1ccccn1)C(=O)N[C@@H](Cc1ccccc1)C[C@H](O)[C@H](Cc1ccccc1)NC(=O)[C@@H](NC(=O)OCc1ccccn1)C(C)C [(22), reference compound] | – | – | 0.015 | – | – | – | – | – | Ki ([2]; Table 1): 0.271 nM; Ki ([1]; Table 1): 0.21 nM
3 | Cc1cccc(C)c1OCC(=O)N[C@@H](Cc1ccccc1)[C@@H](O)C[C@H](Cc1ccccc1)NC(=O)[C@H](C(C)C)N1CCCNC1=O [(24), reference compound] | 41 | > 100000 | 0.013 | 3500 | 41 | 1960 | > 100000 | 0.012 | –
4 | Cc1cccc(C)c1OCC(=O)N[C@@H](Cc1ccccc1)[C@@H](O)C[C@H](CC(C)C)NC(=O)O[C@H]1CCOC1 [(26)] | 700 | – | 0.06 | 55 | 700 | 3.5 | > 100000 | 0.06 | Ki ([2]; Table 1, in nM): 2.7 nM
5 | Cc1cccc(C)c1OCC(=O)N[C@@H](Cc1ccccc1)[C@@H](O)C[C@H](CC(C)C)NC(=O)NC(C)(C)C [(28), (2S,3S,5S)-5-[N-[[N′-(tert-butyl)amino]carbonyl]amino]-2-[N-[2-(2,6-dimethylphenoxy)acetyl]amino]-3-hydroxy-7-methyl-1-phenyloctane] | 2000 | – | 0.1 | 107 | 2000 | – | > 100000 | 0.1 | inhibitory activity against plasmepsin II, in words (plasmepsin II): generally potent; inhibitory activity against cathepsin D, in words (cathepsin D): generally potent; inhibitory activity against HIV-1 protease, in words (HIV-1 protease): generally potent
6 | Cc1cccc(C)c1OCC(=O)N[C@@H](Cc1ccccc1)[C@@H](O)C[C@H](CC(C)C)NC(=O)[C@@H]1CCNC(=O)N1 [(29), (2S,3S,5S)-2-[N-[2-(2,6-dimethylphenoxy)acetyl]amino]-5-[N-[2S-(2-oxopyrimidinyl)-4-carbonyl]amino]-3-hydroxy-7-methyl-1-phenyloctane] | – | – | – | 3500 | – | 305 | – | 0.16 | HIV-1 EC50 (μM) (HIV-1; Table 1): in-active; HIV-1 EC50 (μM) (HIV-1; Table 2): notactive; Ki (HIV-1 protease; [4]): 16 nM
7 | Cc1cccc(C)c1OCC(=O)N[C@@H](Cc1ccccc1)[C@@H](O)C[C@H](CC(C)C)NC(=O)[C@@H](NC(=O)OCc1ccccn1)C(C)C [(30), (2S,3S,5S)-2-[N-[2-(2,6-dimethylphenoxy)acetyl]amino]-5-[N-[N′-(pyridine-2-methoxycarbonyl)valinyl]amino]-3-hydroxy-7-methyl-1-phenyloctane] | 83 | > 100000 | 0.017 | 2350 | 83 | 3300 | > 100000 | 0.017 | Ki ([2]; Table 1): 0.41 nM
8 | Cc1cccc(C)c1OCC(=O)N[C@@H](Cc1ccccc1)[C@@H](O)C[C@H](CC(C)C)NC(=O)c1ccc(N)cc1 [(31), (2S,3S,5S)-5-[N-(4-aminobenzoyl)amino]-2-[N-[2-(2,6-dimethylphenoxy)acetyl]amino]-3-hydroxy-7-methyl-1-phenyloctane] | – | > 100000 | – | 30 | – | – | > 100000 | – | inhibitory activity against plasmepsin II, in words (plasmepsin II): generally potent; EC50 (HIV-1; Human immunodeficiency virus 1, Table 1): 2000 nM; inhibitory activity against cathepsin D, in words (cathepsin D): generally potent; Ki (HIV-1 protease): 1.2 nM; inhibitory activity against HIV-1 protease, in words (HIV-1 protease): generally potent
9 | Cc1cccc(C)c1OCC(=O)N[C@@H](Cc1ccccc1)[C@@H](O)C[C@H](CC(C)C)NC(=O)c1cccc(N)c1 [(32)] | 2000 | > 100000 | 0.331 | 18 | 2000 | 7.4 | > 100000 | 0.33 | inhibitory activity against plasmepsin II, in words (plasmepsin II): generally potent; inhibitory activity against cathepsin D, in words (cathepsin D): generally potent; inhibitory activity against HIV-1 protease, in words (HIV-1 protease): generally potent
10 | CC(C)C[C@@H](C[C@H](O)[C@H](Cc1ccccc1)NC(=O)O[C@H]1CCOC1)NC(=O)[C@H](C(C)C)N1CCCNC1=O [(35), (2S,3S,5S)-2-[N-(3S-terahydrofuranyloxycarbonyl]amino]-5-[N-[[3-methyl-2S-(2-oxo-tetrahydropyrimidin-1-yl)]butyryl]amino]-3-hydroxy-7-methyl-1-phenyloctane] | 700 | > 100000 | 0.094 ± 0.024 | – | – | – | – | – | Ki ([2]; Table 1, in nM): 3.2 nM
11 | Cc1ccccc1C(=O)N[C@@H](Cc1ccccc1)[C@@H](O)C[C@H](CC(C)C)NC(=O)OC(C)(C)C [(38)] | – | – | – | – | – | – | – | – | Ki ([1]; Table 1, in nM): 12 nM; Ki (HIV-1 protease; [4]): 2.1 nM
12 | Cc1cccc(C)c1OCC(=O)N[C@@H](CC(C)C)C[C@H](O)[C@H](Cc1ccccc1)NC(=O)[C@H](C(C)C)N1CCCNC1=O [(43)] | 540 | > 100000 | 0.176 | – | – | – | – | – | Cmax [3]: 2100 nM; Rat P.O. tmax [3]: 120 min; Cmax when administered orally, in words ([3]; oral): micromolar; EC50 (HIV-1; Table 3): 540 nM; Ki (HIV-1 protease; Table 3, read-out: HIV-1 Ki): 0.176 nM; Rat IV CL (Rat IV pharmacokinetics): 36.6 mL/min/kg; Rat IV t1/2 (Rat IV pharmacokinetics): 28 min
13 | Cc1cccc(C)c1OCC(=O)N[C@@H](Cc1ccccc1)[C@@H](O)C[C@H](CC(C)C)NC(=O)[C@@H](NC(=O)N1CCOCC1)C(C)C [(45), (2S,3S,5S)-2-[N-[2-(2,6-dimethylphenoxy)acetyl]amino]-5-[N-[[N′-(morpholin-4)carbonyl]valinyl]amino]-3-hydroxy-7-methyl-1-phenyloctane] | 170 | > 100000 | 0.05 | – | – | – | – | – | Ki ([2]; Table 1): 0.437 nM; Rat P.O. % F (%) ([3]; AUC p.o. relative to AUC iv): 29%; Cmax [3]: 573 nM; Rat P.O. tmax [3]: 16 min; EC50 (HIV-1; Table 3): 170 nM; Ki (HIV-1 protease; Table 3, read-out: HIV-1 Ki): 0.05 nM; Rat IV CL (Rat IV pharmacokinetics): 67.5 mL/min/kg; Rat IV t1/2 (Rat IV pharmacokinetics): 20 min
14 | CCOC(=O)N[C@H](C(=O)N[C@@H](CC(C)C)C[C@H](O)[C@H](Cc1ccccc1)NC(=O)COc1c(C)cccc1C)C(C)C [(46)] | 160 | > 100000 | 0.054 | – | – | – | – | – | Ki ([2]; Table 1): 0.671 nM
